Laboratory results: the supplement of paper PMC9663587

Tests used:
Neratinib/HKI272 = compound: CCOc1cc2ncc(C#N)c(Nc3ccc(OCc4ccccn4)c(Cl)c3)c2cc1NC(=O)/C=C/CN(C)C [Neratinib/HKI272]; experiment: GR value, 72 h; higher = faster growth (1 = untreated, <0 = killing);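 also: breast cancer and non-malignant breast epithelial lines, nine half-log doses, viable cells counted by Hoechst and LIVE/DEAD dye imaging versus time-zero plates and DMSO controls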
[1] = compound: CC(=O)c1c(C)c2cnc(Nc3ccc(N4CCNCC4)cn3)nc2n(C2CCCC2)c1=O; experiment: as above
[2] = compound: CCc1cnn2c(NCc3ccc[n+]([O-])c3)cc(N3CCCC[C@H]3CCO)nc12; experiment: as above
[3] = compound: CCN1CCN(Cc2ccc(Nc3ncc(F)c(-c4cc(F)c5nc(C)n(C(C)C)c5c4)n3)nc2)CC1; experiment: as above
[4] = compound: CCN1CCN(Cc2ccc(Nc3ncc(F)c(-c4cc(F)c5nc(C)n(C(C)C)c5c4)n3)nc2)CC1; experiment: increase in dead-cell fraction, 72 h; higher = more death;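 also: breast cancer cell lines in 384-well plates, stained with Hoechst plus LIVE/DEAD far red dye and imaged, cells above an LDR intensity threshold counted dead, Hoechst-negative corpses included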
BSJ-03-123 = compound: CC(=O)c1c(C)c2cnc(Nc3ccc(N4CCN(CCOCCOCCOCCNC(=O)COc5cccc6c5C(=O)N(C5CCC(=O)NC5=O)C6=O)CC4)cn3)nc2n(C2CCCC2)c1=O [BSJ-03-123]; experiment: GR value, 72 h; higher = faster growth (1 = untreated, <0 = killing);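 also: breast cancer and non-malignant breast epithelial lines, nine half-log doses, viable cells counted by Hoechst and LIVE/DEAD dye imaging versus time-zero plates and DMSO controls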
Flavopiridol [5] = compound: T1, CN1CC[C@H](c2c(O)cc(O)c3c(=O)cc(-c4ccccc4Cl)oc23)[C@H](O)C1 [Flavopiridol]; experiment: as above
THZ1 = compound: CN(C)C/C=C/C(=O)Nc1ccc(C(=O)Nc2cccc(Nc3ncc(Cl)c(-c4c[nH]c5ccccc45)n3)c2)cc1 [THZ1]; experiment: as above
LEE011/Ribociclib = compound: CN(C)C(=O)c1cc2cnc(Nc3ccc(N4CCNCC4)cn3)nc2n1C1CCCC1 [LEE011/Ribociclib]; experiment: as above
YKL-5-124 = compound: C=CC(=O)Nc1ccc(C(=O)Nc2[nH]nc3c2CN(C(=O)N[C@H](CN(C)C)c2ccccc2)C3(C)C)cc1 [YKL-5-124]; experiment: as above
THZ531 = compound: CN(C)C/C=C/C(=O)Nc1ccc(C(=O)N2CCC[C@@H](Nc3ncc(Cl)c(-c4c[nH]c5ccccc45)n3)C2)cc1 [THZ531]; experiment: as above
Flavopiridol [6] = compound: T1, Flavopiridol; experiment: increase in dead-cell fraction, 72 h; higher = more death;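 also: breast cancer cell lines in 384-well plates, stained with Hoechst plus LIVE/DEAD far red dye and imaged, cells above an LDR intensity threshold counted dead, Hoechst-negative corpses included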

## HCC1428
Neratinib/HKI272; 0.0003162 µM
  GR value: 1.08 GR
Neratinib/HKI272; 0.001 µM
  GR value: 1.03 GR
Neratinib/HKI272; 0.003162 µM
  GR value: 1.05 GR
Neratinib/HKI272; 0.01 µM
  GR value: 0.992 GR
Neratinib/HKI272; 0.03162 µM
  GR value: 1.1 GR
Neratinib/HKI272; 0.1 µM
  GR value: 0.964 GR
Neratinib/HKI272; 0.3162 µM
  GR value: 0.922 GR
Neratinib/HKI272; 1 µM
  GR value: 0.656 GR
Neratinib/HKI272; 3.162 µM
  GR value: -0.0337 GR
[1]; 0.0003162 µM
  GR value: 1.05 GR
[1]; 0.001 µM
  GR value: 1.07 GR
[1]; 0.003162 µM
  GR value: 1.14 GR
[1]; 0.01 µM
  GR value: 0.874 GR
[1]; 0.03162 µM
  GR value: 0.729 GR
[1]; 0.1 µM
  GR value: 0.434 GR
[1]; 0.3162 µM
  GR value: 0.313 GR
[1]; 1 µM
  GR value: 0.247 GR
[1]; 3.162 µM
  GR value: 0.268 GR
[2]; 0.0001 µM
  GR value: 1.11 GR
[2]; 0.0003162 µM
  GR value: 1.09 GR
[2]; 0.001 µM
  GR value: 0.975 GR
[2]; 0.003162 µM
  GR value: 0.984 GR
[2]; 0.01 µM
  GR value: 0.871 GR
[2]; 0.03162 µM
  GR value: -0.205 GR
[2]; 0.1 µM
  GR value: -0.538 GR
[2]; 0.3162 µM
  GR value: -0.619 GR
[2]; 1 µM
  GR value: -0.67 GR
[3]; 0.001 µM
  GR value: 0.945 GR
[3]; 0.003162 µM
  GR value: 0.654 GR
[3]; 0.01 µM
  GR value: 0.515 GR
[3]; 0.03162 µM
  GR value: 0.31 GR
[3]; 0.1 µM
  GR value: 0.228 GR
[3]; 0.3162 µM
  GR value: 0.25 GR
[3]; 1 µM
  GR value: 0.234 GR
[3]; 3.162 µM
  GR value: 0.181 GR
[3]; 10 µM
  GR value: 0.0475 GR
[4]; 0.001 µM
  increase in dead-cell fraction: -0.0074
[4]; 0.003162 µM
  increase in dead-cell fraction: 0.0007
[4]; 0.01 µM
  increase in dead-cell fraction: 0.0093
[4]; 0.03162 µM
  increase in dead-cell fraction: 0.0115
[4]; 0.1 µM
  increase in dead-cell fraction: 0.0154
[4]; 0.3162 µM
  increase in dead-cell fraction: 0.0035
[4]; 1 µM
  increase in dead-cell fraction: 0.0027
[4]; 3.162 µM
  increase in dead-cell fraction: 0.0224
[4]; 10 µM
  increase in dead-cell fraction: 0.0617

## HCC1500
Neratinib/HKI272; 0.0003162 µM
  GR value: 1.03 GR
Neratinib/HKI272; 0.001 µM
  GR value: 1.13 GR
Neratinib/HKI272; 0.003162 µM
  GR value: 1.01 GR
Neratinib/HKI272; 0.01 µM
  GR value: 1.02 GR
Neratinib/HKI272; 0.03162 µM
  GR value: 0.915 GR
Neratinib/HKI272; 0.1 µM
  GR value: 0.889 GR
Neratinib/HKI272; 0.3162 µM
  GR value: 0.793 GR
Neratinib/HKI272; 1 µM
  GR value: 0.416 GR
Neratinib/HKI272; 3.162 µM
  GR value: -0.245 GR
[1]; 0.0003162 µM
  GR value: 1.03 GR
[1]; 0.001 µM
  GR value: 1.16 GR
[1]; 0.003162 µM
  GR value: 1.19 GR
[1]; 0.01 µM
  GR value: 1.11 GR
[1]; 0.03162 µM
  GR value: 0.838 GR
[1]; 0.1 µM
  GR value: 0.676 GR
[1]; 0.3162 µM
  GR value: 0.581 GR
[1]; 1 µM
  GR value: 0.709 GR
[1]; 3.162 µM
  GR value: 0.592 GR
[2]; 0.0001 µM
  GR value: 1.07 GR
[2]; 0.0003162 µM
  GR value: 0.975 GR
[2]; 0.001 µM
  GR value: 1.06 GR
[2]; 0.003162 µM
  GR value: 1.06 GR
[2]; 0.01 µM
  GR value: 0.674 GR
[2]; 0.03162 µM
  GR value: -0.172 GR
[2]; 0.1 µM
  GR value: -0.576 GR
[2]; 0.3162 µM
  GR value: -0.534 GR
[2]; 1 µM
  GR value: -0.601 GR
[3]; 0.001 µM
  GR value: 1.1 GR
[3]; 0.003162 µM
  GR value: 0.961 GR
[3]; 0.01 µM
  GR value: 0.802 GR
[3]; 0.03162 µM
  GR value: 0.592 GR
[3]; 0.1 µM
  GR value: 0.533 GR
[3]; 0.3162 µM
  GR value: 0.701 GR
[3]; 1 µM
  GR value: 0.494 GR
[3]; 3.162 µM
  GR value: 0.395 GR
[3]; 10 µM
  GR value: 0.195 GR
[4]; 0.001 µM
  increase in dead-cell fraction: -0.0021
[4]; 0.003162 µM
  increase in dead-cell fraction: -0.0174
[4]; 0.01 µM
  increase in dead-cell fraction: -0.0129
[4]; 0.03162 µM
  increase in dead-cell fraction: -0.0035
[4]; 0.1 µM
  increase in dead-cell fraction: -0.0151
[4]; 0.3162 µM
  increase in dead-cell fraction: -0.0201
[4]; 1 µM
  increase in dead-cell fraction: -0.015
[4]; 3.162 µM
  increase in dead-cell fraction: -0.0276
[4]; 10 µM
  increase in dead-cell fraction: 0.0351

## MCF10A (GM)
BSJ-03-123; 0.001 µM
  GR value: 0.904 GR
BSJ-03-123; 0.003162 µM
  GR value: 0.952 GR
BSJ-03-123; 0.01 µM
  GR value: 0.879 GR
BSJ-03-123; 0.03162 µM
  GR value: 0.859 GR
BSJ-03-123; 0.1 µM
  GR value: 0.884 GR
BSJ-03-123; 0.3162 µM
  GR value: 0.795 GR
BSJ-03-123; 1 µM
  GR value: 0.658 GR
BSJ-03-123; 3.162 µM
  GR value: 0.549 GR
BSJ-03-123; 10 µM
  GR value: -0.17 GR
Flavopiridol [5]; 0.0001 µM
  GR value: 1 GR
Flavopiridol [5]; 0.0003162 µM
  GR value: 1.01 GR
Flavopiridol [5]; 0.001 µM
  GR value: 1.01 GR
Flavopiridol [5]; 0.003162 µM
  GR value: 0.996 GR
Flavopiridol [5]; 0.01 µM
  GR value: 0.962 GR
Flavopiridol [5]; 0.03162 µM
  GR value: 0.842 GR
Flavopiridol [5]; 0.1 µM
  GR value: 0.557 GR
Flavopiridol [5]; 0.3162 µM
  GR value: -0.244 GR
Flavopiridol [5]; 1 µM
  GR value: -0.319 GR
THZ1; 0.0001 µM
  GR value: 0.997 GR
THZ1; 0.0003162 µM
  GR value: 0.998 GR
THZ1; 0.001 µM
  GR value: 0.986 GR
THZ1; 0.003162 µM
  GR value: 0.993 GR
THZ1; 0.01 µM
  GR value: 0.898 GR
THZ1; 0.03162 µM
  GR value: 0.539 GR
THZ1; 0.1 µM
  GR value: 0.23 GR
THZ1; 0.3162 µM
  GR value: 0.0499 GR
THZ1; 1 µM
  GR value: -0.285 GR
LEE011/Ribociclib; 0.001 µM
  GR value: 0.925 GR
LEE011/Ribociclib; 0.003162 µM
  GR value: 0.95 GR
LEE011/Ribociclib; 0.01 µM
  GR value: 0.906 GR
LEE011/Ribociclib; 0.03162 µM
  GR value: 0.892 GR
LEE011/Ribociclib; 0.1 µM
  GR value: 0.859 GR
LEE011/Ribociclib; 0.3162 µM
  GR value: 0.823 GR
LEE011/Ribociclib; 1 µM
  GR value: 0.808 GR
LEE011/Ribociclib; 3.162 µM
  GR value: 0.736 GR
LEE011/Ribociclib; 10 µM
  GR value: 0.525 GR
YKL-5-124; 0.001 µM
  GR value: 0.327 GR
YKL-5-124; 0.003162 µM
  GR value: 0.118 GR
YKL-5-124; 0.01 µM
  GR value: 0.0291 GR
YKL-5-124; 0.03162 µM
  GR value: 0.0039 GR
YKL-5-124; 0.1 µM
  GR value: 0.0039 GR
YKL-5-124; 0.3162 µM
  GR value: -0.0162 GR
YKL-5-124; 1 µM
  GR value: -0.0398 GR
YKL-5-124; 3.162 µM
  GR value: -0.0468 GR
YKL-5-124; 10 µM
  GR value: -0.141 GR
THZ531; 0.0001 µM
  GR value: 1 GR
THZ531; 0.0003162 µM
  GR value: 1 GR
THZ531; 0.001 µM
  GR value: 0.992 GR
THZ531; 0.003162 µM
  GR value: 0.983 GR
THZ531; 0.01 µM
  GR value: 0.997 GR
THZ531; 0.03162 µM
  GR value: 0.974 GR
THZ531; 0.1 µM
  GR value: 0.926 GR
THZ531; 0.3162 µM
  GR value: 0.707 GR
THZ531; 1 µM
  GR value: -0.276 GR
Flavopiridol [6]; 0.0001 µM
  increase in dead-cell fraction: -0.0007
Flavopiridol [6]; 0.0003162 µM
  increase in dead-cell fraction: -0.0019
Flavopiridol [6]; 0.001 µM
  increase in dead-cell fraction: -0.0004
Flavopiridol [6]; 0.003162 µM
  increase in dead-cell fraction: -0.0003
Flavopiridol [6]; 0.01 µM
  increase in dead-cell fraction: 0.0027
Flavopiridol [6]; 0.03162 µM
  increase in dead-cell fraction: 0.0152
Flavopiridol [6]; 0.1 µM
  increase in dead-cell fraction: 0.0701
Flavopiridol [6]; 0.3162 µM
  increase in dead-cell fraction: 0.491
Flavopiridol [6]; 1 µM
  increase in dead-cell fraction: 0.66
